This assay concerns colon inflammation induced by 2,4,6 TNBS. In words: Colon-inflammatory model induced by 2,4,6 TNBS in rats. The class given is in vivo, Wistar (CD) male rats. Conditions: PABD 2 g/kg/day p.o., infliximab 3.0 mg/kg/day, SASP 50 mg/kg/day; for Body weight change (body weight relative to 100% before TNBS): 2,4,6 TNBS 10 mg/rat into colon, evaluated third day, TNBS alone 91.8%; for Seriousness of inflammation (0-11 scale) / Extension of mucous membrane lesions / TNF-α level: 2,4,6 TNBS 10 mg/rat, third day; for Seriousness of inflammation (0-11 scale): TNBS alone 7.6; for Extension of mucous membrane lesions: TNBS alone 60.2%; for TNF-α level: control 12.7, TNBS alone 420.4. The source says:
Examination of Anti-Inflammatory Effect in Colon-Inflammatory Model Induced by TNBS in the Case of Rats.
The 2,4,6 Trinitrobenzene-sulphonic-acid (2,4,6 TNBS) induction method represents well the pathological changes typical of patients suffering e.g. from Crohn's disease, so this model is well known and accepted in IBD-studies. The method described in Morris G. P. et al. “Hapten-induced model of chronic inflammation and ulceration in the rat colon” Gastroenterology 1989., 96(3); 795-803 was followed.
Examinations were made in Wistar (CD) male rats. Nr: 10-10/groups.
PABD powder was produced as described in Example 2; DH % of it's protein fraction was 20%.
2,4,6 TNBS=2,4,6 Trinitrobenzene-sulphonic-acid in solution.
During the method 2,4,6 TNBS (10 mg/rat) was introduced after 12 hours starving in aether-anaesthesia into the colon. Inflammation reach the maximum on the third day. The animals were sacrificed by cervalis dislocation and the results were evaluated.

`O=C(O)c1cc(/N=N/c2ccc(S(=O)(=O)Nc3ccccn3)cc2)ccc1O` [SASP, Sulfasalazine]: the “Body weight change (body weight relative to 100% before TNBS)” value was found to be 100.8%, the “Seriousness of inflammation (0-11 scale)” value is reported as 5.8, the “Extension of mucous membrane lesions” value is recorded as 39.7% and the TNF-α level is listed as 236.1 pg/mg protein.
The like results for “Infliximab: biologically active agent used in the treatment of IBD; comparator treatment” were, in that order, 100.0%, 5.4, 36.4% and 212.0 pg/mg protein.

The record behind these values is patent US20140328882A1, “WHEAT GERM EXTRACT OBTAINED BY PROTEASE HYDROLYSIS AND MEDICAL USE THEREOF” (BIROPHARMA UK LTD, priority 2011, published 2014).
